{
  "source": "PubChem BioAssay AID1745844",
  "about": "(Carcinogenic Potency Database (CPDB), 2022)",
  "tested_on": "rodent lifetime carcinogenesis bioassay, tumor incidence TD50",
  "assay": "carcinogenic potency in animals, long-term in vivo studies, CPDB compilation (AID 1745844)",
  "note": "The source made the active and inactive calls. How the calls were made is not given here.",
  "data": [
    {"molecule": "ClC1=C(Cl)[C@]2(Cl)[C@H]3[C@H]([C@@H]4C=C[C@H]3C4)[C@@]1(Cl)C2(Cl)Cl", "values": [
      {"measurement": "carcinogen call", "setting": "mouse, strain B6C3F1, females, in feed, site: any site (literature study), lesion: several types, types named in the paper, dosed 80 weeks, study length 90 weeks", "value": "negative (inactive)"},
      {"measurement": "TD50", "setting": "mouse, strain B6C3F1, females, in feed, site: lung, lesion: alveolar/bronchiolar adenoma + alveolar/bronchiolar carcinoma, dosed 80 weeks, study length 90 weeks", "value": 9.02, "unit": "mg/kg/day"},
      {"measurement": "TD50", "setting": "mouse, strain B6C3F1, males, in feed, site: any site (literature study), lesion: several types, types named in the paper, dosed 80 weeks, study length 90 weeks", "value": 1.01, "unit": "mg/kg/day"},
      {"measurement": "TD50", "setting": "mouse, strain B6C3F1, males, in feed, site: liver, lesion: hepatocellular adenoma + hepatocellular carcinoma + neoplastic nodule, dosed 80 weeks, study length 90 weeks", "value": 0.741, "unit": "mg/kg/day"},
      {"measurement": "TD50", "setting": "mouse, strain B6C3F1, males, in feed, site: liver, lesion: hepatocellular carcinoma, dosed 80 weeks, study length 89 weeks", "value": 0.861, "unit": "mg/kg/day"},
      {"measurement": "TD50", "setting": "mouse, strain B6C3F1, males, in feed, site: liver, lesion: hepatocellular carcinoma, dosed 80 weeks, study length 90 weeks", "value": 0.741, "unit": "mg/kg/day"},
      {"measurement": "TD50", "setting": "mouse, strain B6C3F1, males, in feed, site: lung, lesion: alveolar/bronchiolar adenoma + alveolar/bronchiolar carcinoma, dosed 80 weeks, study length 90 weeks", "value": 3.2, "unit": "mg/kg/day"},
      {"measurement": "TD50", "setting": "mouse, strain C3HeB/Fe, both sexes, in feed, site: any site (literature study), lesion: benign tumor, dosed 104 weeks, study length 104 weeks", "value": 4.25, "unit": "mg/kg/day"},
      {"measurement": "TD50", "setting": "mouse, strain C3HeB/Fe, both sexes, in feed, site: liver, lesion: hepatocellular adenoma, dosed 104 weeks, study length 104 weeks", "value": 4.41, "unit": "mg/kg/day"},
      {"measurement": "TD50", "setting": "mouse, strain C3HeB/Fe, both sexes, in feed, site: liver, lesion: hepatoma, dosed 104 weeks, study length 104 weeks", "value": 3.45, "unit": "mg/kg/day"},
      {"measurement": "TD50", "setting": "mouse, strain C3HeB/Fe, both sexes, in feed, site: lung, lesion: carcinoma, dosed 104 weeks, study length 104 weeks", "value": 129, "unit": "mg/kg/day"},
      {"measurement": "carcinogen call", "setting": "rat, strain Not specified, females, in feed, site: any site (literature study), lesion: one or several types, types not named, dosed 104 weeks, study length 104 weeks", "value": "negative (inactive)"},
      {"measurement": "carcinogen call", "setting": "rat, strain Not specified, males, in feed, site: any site (literature study), lesion: one or several types, types not named, dosed 104 weeks, study length 104 weeks", "value": "negative (inactive)"},
      {"measurement": "carcinogen call", "setting": "rat, strain Osborne-Mendel, both sexes, in feed, site: any site (literature study), lesion: several types, types named in the paper, dosed 104 weeks, study length 104 weeks", "value": "positive"},
      {"measurement": "TD50", "setting": "rat, strain Osborne-Mendel, both sexes, in feed, site: lung, lesion: lymphosarcoma, dosed 104 weeks, study length 104 weeks", "value": 42.3, "unit": "mg/kg/day"},
      {"measurement": "TD50", "setting": "rat, strain Osborne-Mendel, females, in feed, site: adrenal gland, lesion: cortical adenoma, dosed 80 weeks, study length 109 weeks", "value": "3.12 mg/kg/day (inactive)"},
      {"measurement": "TD50", "setting": "rat, strain Osborne-Mendel, females, in feed, site: any site (literature study), lesion: one or several types, types not named, dosed 104 weeks, study length 104 weeks", "value": 1.69, "unit": "mg/kg/day"},
      {"measurement": "carcinogen call", "setting": "rat, strain Osborne-Mendel, females, in feed, site: any site (literature study), lesion: several types, types named in the paper, dosed 80 weeks, study length 111 weeks", "value": "negative (inactive)"},
      {"measurement": "carcinogen call", "setting": "rat, strain Osborne-Mendel, females, in feed, site: any site (literature study), lesion: several types, types named in the paper, dosed 108 weeks, study length 108 weeks", "value": "negative (inactive)"},
      {"measurement": "carcinogen call", "setting": "rat, strain Osborne-Mendel, females, in feed, site: any site (literature study), lesion: several types, types named in the paper, dosed 111 weeks, study length 117 weeks", "value": "negative (inactive)"},
      {"measurement": "TD50", "setting": "rat, strain Osborne-Mendel, females, in feed, site: liver, lesion: hepatocellular adenoma + hepatocellular carcinoma + neoplastic nodule, dosed 80 weeks, study length 111 weeks", "value": 466, "unit": "mg/kg/day"},
      {"measurement": "carcinogen call", "setting": "rat, strain Osborne-Mendel, females, in feed, site: liver, lesion: one or several types, types not named, dosed 104 weeks, study length 104 weeks", "value": "negative (inactive)"},
      {"measurement": "carcinogen call", "setting": "rat, strain Osborne-Mendel, females, in feed, site: liver, lesion: one or several types, types not named, dosed 108 weeks, study length 108 weeks", "value": "negative (inactive)"},
      {"measurement": "carcinogen call", "setting": "rat, strain Osborne-Mendel, females, in feed, site: liver, lesion: one or several types, types not named, dosed 111 weeks, study length 117 weeks", "value": "negative (inactive)"},
      {"measurement": "TD50", "setting": "rat, strain Osborne-Mendel, females, in feed, site: lymphoreticular system, lesion: one or several types, types not named, dosed 104 weeks, study length 104 weeks", "value": "4.35 mg/kg/day (inactive)"},
      {"measurement": "TD50", "setting": "rat, strain Osborne-Mendel, males, in feed, site: any site (literature study), lesion: several types, types named in the paper, dosed 74 weeks, study length 111 weeks", "value": "16.4 mg/kg/day (inactive)"},
      {"measurement": "TD50", "setting": "rat, strain Osborne-Mendel, males, in feed, site: any site (literature study), lesion: several types, types named in the paper, dosed 108 weeks, study length 108 weeks", "value": "4.21 mg/kg/day (inactive)"},
      {"measurement": "carcinogen call", "setting": "rat, strain Osborne-Mendel, males, in feed, site: any site (literature study), lesion: several types, types named in the paper, dosed 124 weeks, study length 134 weeks", "value": "negative (inactive)"},
      {"measurement": "carcinogen call", "setting": "rat, strain Osborne-Mendel, males, in feed, site: liver, lesion: hemangioma, dosed 124 weeks, study length 134 weeks", "value": "negative (inactive)"},
      {"measurement": "carcinogen call", "setting": "rat, strain Osborne-Mendel, males, in feed, site: liver, lesion: one or several types, types not named, dosed 108 weeks, study length 108 weeks", "value": "negative (inactive)"},
      {"measurement": "carcinogen call", "setting": "rat, strain Sprague-Dawley, females, in feed, site: liver, lesion: one or several types, types not named, dosed 104 weeks, study length 104 weeks", "value": "negative (inactive)"}
    ]},
    {"molecule": "O=C1C=C(N2CC2)C(=O)C(N2CC2)=C1N1CC1", "values": [
      {"measurement": "TD50", "setting": "rat, strain BR 46, males, i.v., site: any site (literature study), lesion: benign tumor, dosed 52 weeks, study length 104 weeks", "value": 0.032, "unit": "mg/kg/day"},
      {"measurement": "TD50", "setting": "rat, strain BR 46, males, i.v., site: any site (literature study), lesion: malignant tumor, dosed 52 weeks, study length 104 weeks", "value": 0.00677, "unit": "mg/kg/day"},
      {"measurement": "TD50", "setting": "rat, strain BR 46, males, i.v., site: any site (literature study), lesion: several types, types named in the paper, dosed 52 weeks, study length 104 weeks", "value": 0.00504, "unit": "mg/kg/day"},
      {"measurement": "TD50", "setting": "rat, strain BR 46, males, i.v., site: liver, lesion: liver-cell carcinoma, dosed 52 weeks, study length 104 weeks", "value": 0.0653, "unit": "mg/kg/day"}
    ]},
    {"molecule": "FCCl", "values": [
      {"measurement": "TD50", "setting": "rat, strain Alpk:APfSD, females, by gavage, site: stomach, lesion: carcinoma, dosed 52 weeks, study length 108 weeks", "value": 2710, "unit": "mg/kg/day"},
      {"measurement": "TD50", "setting": "rat, strain Alpk:APfSD, females, by gavage, site: stomach, lesion: fibrosarcoma, dosed 52 weeks, study length 108 weeks", "value": 119, "unit": "mg/kg/day"},
      {"measurement": "TD50", "setting": "rat, strain Alpk:APfSD, females, by gavage, site: stomach, lesion: sarcoma, dosed 52 weeks, study length 108 weeks", "value": 2710, "unit": "mg/kg/day"},
      {"measurement": "TD50", "setting": "rat, strain Alpk:APfSD, females, by gavage, site: stomach, lesion: several types, types named in the paper, dosed 52 weeks, study length 108 weeks", "value": 26.5, "unit": "mg/kg/day"},
      {"measurement": "TD50", "setting": "rat, strain Alpk:APfSD, females, by gavage, site: stomach, lesion: squamous-cell carcinoma, dosed 52 weeks, study length 108 weeks", "value": 69.4, "unit": "mg/kg/day"},
      {"measurement": "TD50", "setting": "rat, strain Alpk:APfSD, males, by gavage, site: stomach, lesion: fibrosarcoma, dosed 52 weeks, study length 100 weeks", "value": 88.1, "unit": "mg/kg/day"},
      {"measurement": "TD50", "setting": "rat, strain Alpk:APfSD, males, by gavage, site: stomach, lesion: several types, types named in the paper, dosed 52 weeks, study length 100 weeks", "value": 28.5, "unit": "mg/kg/day"},
      {"measurement": "TD50", "setting": "rat, strain Alpk:APfSD, males, by gavage, site: stomach, lesion: squamous-cell carcinoma, dosed 52 weeks, study length 100 weeks", "value": 46.9, "unit": "mg/kg/day"}
    ]},
    {"molecule": "COC(=O)C(c1ccccc1)C1CCCCN1N=O", "note": "(stereo not drawn)", "values": [
      {"measurement": "carcinogen call", "setting": "mouse, strain (C57BL/6 x BALB/c)F1, females, in drinking water, site: any site (literature study), lesion: several types, types named in the paper, dosed 73 weeks, study length 106 weeks", "value": "negative (inactive)"},
      {"measurement": "carcinogen call", "setting": "mouse, strain (C57BL/6 x BALB/c)F1, females, in drinking water, site: liver, lesion: one or several types, types not named, dosed 73 weeks, study length 106 weeks", "value": "negative (inactive)"},
      {"measurement": "carcinogen call", "setting": "mouse, strain (C57BL/6 x BALB/c)F1, females, in drinking water, site: lung, lesion: one or several types, types not named, dosed 73 weeks, study length 106 weeks", "value": "negative (inactive)"},
      {"measurement": "carcinogen call", "setting": "mouse, strain (C57BL/6 x BALB/c)F1, males, in drinking water, site: any site (literature study), lesion: several types, types named in the paper, dosed 73 weeks, study length 106 weeks", "value": "negative (inactive)"},
      {"measurement": "carcinogen call", "setting": "mouse, strain (C57BL/6 x BALB/c)F1, males, in drinking water, site: lung, lesion: one or several types, types not named, dosed 73 weeks, study length 106 weeks", "value": "negative (inactive)"}
    ]}
  ]
}
